The values that follow come from patent EP4703354A1, “COMPOUND AS CCR6 ANTAGONIST, AND PHARMACEUTICAL COMPOSITION AND USE THEREOF” (Wuhan Createrna Science and Technology Co.,Ltd., priority 2023, dated 2024).

pIC50: −log10 of the molar value.

Series [1] is described as follows: in vitro liver microsome metabolic stability, mouse. Particulars: Mouse liver microsomes, 37°C. Format: in vitro ADME. The procedure: Preparation of working solutions for test compounds and standards: An appropriate amount of the compound was accurately weighed and dissolved in a corresponding volume of suitable solvent to prepare 1 mM stock solutions of the test compounds and standards. The stock solutions were then diluted with appropriate solvent to obtain 100 µM working solutions of the test compounds, ensuring that the DMSO content in the working solutions remained below 10%.
The internal standard compound testosterone (or tolbutamide) and its corresponding solvent, internal standard concentration (200 ng/mL), were selected based on the properties of the test compound.
• Solution A: 0.1 mol/L K2HPO4 (2.28 g K2HPO4·3H2O was dissolved in 100 mL of double-distilled water); • Solution B: 0.1 mol/L KH2PO4 (1.36 g KH2PO4 was dissolved in 100 mL of double-distilled water); • 80.2 mL of Solution A and 19.8 mL of Solution B were mixed thoroughly, and the pH was adjusted to 7.4.
37.5 mg of glycine was weighed, dissolved in 100 mL of ultrapure water, and adjusted to pH 8.0 with NaOH.
1.25 mg of glucose-6-phosphate dehydrogenase (400 U/mg) was weighed (the specific amount weighed was calculated based on the activity of the purchased glucose-6-phosphate dehydrogenase), dissolved in 1 mL of glycine buffer to a concentration of 500 U/mL, aliquoted into 20 µL per tube, and stored at -20°C for future use.
7.83 mg of NADP, 0.06 mL of D-glucose-6-phosphate (260 mg/mL), and 10.17 mg of MgCl2·6H2O were precisely weighed.
The mixture was dissolved in 1 mL of pure water. The cofactor ratio composition: NADP 10 mM, D-glucose-6-phosphate 60 mM, MgCl2·6H2O 50 mM.
The reaction system (taking a 500 µL system as an example) was composed of the following solution ratios: 416.5 µL phosphate buffer, 5 µL compound working solution, 25 µL liver microsomes, 3.5 µL glucose-6-phosphate dehydrogenase, and 50 µL cofactor solution. The total incubation volume could be adjusted according to experimental requirements.
416.5 µL of phosphate buffer was taken, 25 µL of liver microsomes, 3.5 µL of glucose-6-phosphate dehydrogenase, and 50 µL of cofactor solution were added, vortexed twice to mix, and preincubated in a 37°C water bath for 5 minutes. Then, 5 µL of the test compound working solution was added, vortexed twice to mix, each time for 2-3 seconds, and placed in a 37°C water bath to initiate the reaction, with two parallel samples set. At 0.5 min, 1 min, 2 min, 5 min, 15 min, and 30 min after the reaction, 50 µL of the mixture was taken and added to centrifuge tubes containing 200 µL of 0°C pre-cooled internal standard working solution to terminate the reaction, vortexed for 1 minute to mix, and centrifuged at 13,000 rpm for 10 minutes in a 4°C pre-cooled high-speed centrifuge. The supernatant was collected for analysis. After the compound was added and vortex-mixed, 50 µL of the mixture was rapidly transferred to a centrifuge tube containing 200 µL of a pre-cooled (0°C) internal standard working solution to terminate the reaction, vortex-mixed for 1 minute, and used as the relative zero-point sample (relative to the standard group). The sample was then placed into a 37°C water bath to initiate the reaction, and timing was started.
The sample analysis of the test compound was performed using the liquid chromatography-tandem mass spectrometry (LCMS/MS) method. The semi-quantitative determination was performed using the ratio of the analyte peak area to the internal standard peak area. The retention times of the analyte and internal standard, chromatogram acquisition, and chromatogram integration were processed using Analyst software.
The in vitro elimination rate constant k of the test compound and the control compound was determined by converting the ratio of the peak area of the test compound to the internal standard into the remaining rate, and T1/2 was then calculated according to the following formula. T1/2 = (Ln2)/(k) = (0.693)/(k) [formula] Table 3. […]
In general terms: Liver microsomes are vesicles of endoplasmic reticulum, rich in cytochrome P450 enzymes.

Series [2] can be described thus: in vitro liver microsome metabolic stability, rat. Format: in vitro ADME. Conditions: Rat liver microsomes, 37°C. The method, boiled down: (§1)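 Test compound at 1 µM final (100 µM working solution diluted 1:100) incubated at 37°C with liver microsomes in pH 7.4 phosphate buffer with NADP/G6P/G6PDH/MgCl2 regenerating system; sampled 0–30 min, LC-MS/MS vs internal standard. T1/2 = 0.693/k from remaining-fraction decay.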

The nature of series [3]: in vitro liver microsome metabolic stability, human. Particulars: Human liver microsomes, 37°C. Format: in vitro ADME. The method in brief: as §1
Series [4] can be described thus: in vitro liver microsome metabolic stability, beagle dog. Format: in vitro ADME. Particulars: Beagle dog liver microsomes, 37°C. The method, boiled down:
as §1

The next series has as its target T1, human CCR6 (Homo sapiens, UniProt P51684).
T1 construct: expressed in transfected cells; host or cells: HEK293
T1 sequence (P51684 1-374): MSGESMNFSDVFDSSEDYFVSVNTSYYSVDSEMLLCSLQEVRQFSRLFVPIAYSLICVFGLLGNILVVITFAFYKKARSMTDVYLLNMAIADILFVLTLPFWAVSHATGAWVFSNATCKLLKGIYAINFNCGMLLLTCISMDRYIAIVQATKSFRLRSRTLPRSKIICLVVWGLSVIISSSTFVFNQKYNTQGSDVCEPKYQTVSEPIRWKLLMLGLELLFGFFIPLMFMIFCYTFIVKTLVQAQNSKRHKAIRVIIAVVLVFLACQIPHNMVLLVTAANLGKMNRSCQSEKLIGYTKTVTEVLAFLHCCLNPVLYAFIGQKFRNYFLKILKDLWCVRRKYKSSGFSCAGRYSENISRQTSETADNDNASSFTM
In words: human CCR6 calcium flux activity (FLIPR, HEK293 cells stably expressing human CCR6, CCL20 stimulation). Format: cell-based. Conditions: HEK293 cells stably expressing human CCR6, EC80 human MIP-3 alpha/CCL20; read-out: CCR6 inhibitory activity, IC50. The method, boiled down: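 Compounds preincubated with Fluo-4 Direct-loaded cells 50 min at 37 °C, then 10 min at room temperature, before CCL20 challenge at EC80. Fluorescence (ex 494/em 516 nm) recorded 90 s; max−min signal gives inhibition, four-parameter fit yields IC50.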
(Calcium assays in cells follow changes in intracellular calcium, usually with a dye or a luminescent sensor.)

What is called pIC50 is −log10 of the IC50, conventionally taken in molar units. With `CN(C)C(=O)c1nccc(Nc2c(NC(c3nc(Cl)ccc3F)C3(C)CC4CC4C3)c(=O)c2=O)c1O` (centres unmarked) [compound 085, 4-((2-(((6-chloro-3-fluoropyridin-2-yl)(3-methylbicyclo[3.1.0]hexan-3-yl)methyl)amino)-3,4-dioxocyclobut-1-en-1-yl)amino)-3-hydroxy-N,N-dimethylpicolinamide], the “Liver microsome T1-2 (min) Mouse” value in series [1] was found to be 54.79 min. For the same molecule, the “Liver microsome T1-2 (min) Rat” value in series [2] came out at 56.96 min. Further, the “Liver microsome T1-2 (min) Human” value in series [3] amounted to 226.52 min. In addition, in series [4], the “Liver microsome T1-2 (min) Beagle dog” value worked out at 204.66 min. Further, on human CCR6, the negative logarithm of the IC50 (pIC50) was 7.42.
